In patent US8795973B2, “Methods for identifying inhibitors of mannan-binding lectin associated serine protease (MASP) proteins and uses thereof” (University of Leceister, priority 2010, dated 2014):
Several values for one entry are separate records, joined by “and”; a condition that tells them apart may be missing. Equal values may be shown once. Each block holds one molecule with its values, some of them ahead of it.

Key:
[1] = target: T1, MASP-1 binding to immobilized MBL (Rattus norvegicus, UniProt Q8CHN8, H450D/I451D/K449D/R453K/S452D); experiment: Surface plasmon resonance inhibition of MASP-1 binding to immobilized MBL; conditions: for Inhibition of MBL/MASP-1 binding (in words): full-length MBL/MASP-1 complexes
T1 construct: made in house
T1 sequence (Q8CHN8 25-704 K449D/H450D/I451D/S452D/R453K): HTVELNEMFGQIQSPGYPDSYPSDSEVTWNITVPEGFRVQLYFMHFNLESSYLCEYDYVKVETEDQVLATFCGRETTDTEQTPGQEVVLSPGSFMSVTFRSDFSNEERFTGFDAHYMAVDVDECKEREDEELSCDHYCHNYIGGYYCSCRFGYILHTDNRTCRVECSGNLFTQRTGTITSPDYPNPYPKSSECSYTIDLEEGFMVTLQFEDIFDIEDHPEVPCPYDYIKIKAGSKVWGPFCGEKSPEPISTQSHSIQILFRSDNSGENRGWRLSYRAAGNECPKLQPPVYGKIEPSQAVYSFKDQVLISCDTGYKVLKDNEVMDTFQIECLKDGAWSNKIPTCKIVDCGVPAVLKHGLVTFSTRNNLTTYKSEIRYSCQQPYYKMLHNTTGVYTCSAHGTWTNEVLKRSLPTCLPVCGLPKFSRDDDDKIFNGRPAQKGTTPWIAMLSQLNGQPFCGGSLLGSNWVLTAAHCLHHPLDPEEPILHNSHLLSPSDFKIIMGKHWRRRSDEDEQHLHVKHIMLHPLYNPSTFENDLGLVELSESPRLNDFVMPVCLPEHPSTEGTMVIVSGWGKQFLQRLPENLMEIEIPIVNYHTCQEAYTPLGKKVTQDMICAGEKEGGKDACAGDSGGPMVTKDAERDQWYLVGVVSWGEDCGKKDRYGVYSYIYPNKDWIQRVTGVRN
Procedure: Rat MBL-A (referred to as MBL throughout) was produced as described previously. (Wallis and Drickamer, supra (1999)). MASP-1ent (referred to as MASP-1) is a modified form of rat MASP-1 in which the zymogen cleavage site has been replaced by an enterokinase recognition site (DDDDK; SEQ ID NO: 4). […] (Chen and Wallis (2004)). […] (Persikov et al., J Biol Chem 280:19343-19349 (2005)).
MBL (0.025 mg/ml) was immobilized onto the surface of a GLM sensor chip (˜10,000 response units) at pH 4.5, using amine-coupling chemistry. Binding to CUB2 was measured on a ProteOn® XPR36 (BioRad) in 10 mM Tris/HCl pH 7.4, containing 140 mM NaCl, 5 mM Ca^2+ and 0.005% Tween-20 at 25° C., at a flow rate of 25 μL/min. For inhibition assays, MBL was immobilized on to a CM-5 sensor chip (14,000 response units) and binding was measured on a Biacore® 2000 (GE Healthcare) in 20 mM Tris/HCl pH 7.4, containing 140 mM NaCl, 5 mM Ca^2+, and 0.005% SP-20. MASP-1 (100 nM) was premixed with inhibitor and flowed over the chip surface at a rate of 5 μL/min at 25° C. Changes in response units caused by differences in sample composition were subtracted from all data. To account for changes in ionic strength of the buffer due to the inhibitor, binding was measured in the presence of equivalent concentrations of NaCl.

[2] = system: lectin pathway complement activation; experiment: Lectin pathway specific complement activation (Wieslab MBL pathway kit, membrane-attack complex deposition on mannan-coated plates); assay type: biochemical; conditions: three independent experiments, read-out: IC50, inhibition of lectin pathway complement activation
Procedure: Lectin pathway specific complement activation was measured using the Wieslab® MBL pathway kit (Euro-Diagnostica), which measures deposition of the membrane attack complexes on a mannan-coated plate. The lectin pathway is functional, even under conditions of high ionic strength (1M NaCl). (Petersen et al., J Immunol Methods 257:107-116 (2001)).

MASP-1 CUB2 = target: T2, MASP-1 CUB2 (Rattus norvegicus, UniProt Q8CHN8); experiment: Isothermal titration calorimetry of Ca2+ binding to MASP-1 CUB2; conditions: ITC, two independent experiments
T2 construct: MASP-1 CUB2 (residues E165-A277 of the mature polypeptide, isoform 1); made in house; host or cells: E. coli BL21 DE3
T2 sequence (Q8CHN8 189-301): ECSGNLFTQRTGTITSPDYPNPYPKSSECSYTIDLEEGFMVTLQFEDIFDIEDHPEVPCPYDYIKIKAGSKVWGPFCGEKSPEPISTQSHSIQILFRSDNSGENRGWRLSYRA
Procedure: The CUB2 domain was made calcium free by EDTA treatment and dialyzed extensively into 50 mM Tris/HCl, pH 7.4 containing 150 mM NaCl. Freshly prepared 2 mM CaCl2 in the same batch of assay buffer was titrated into CUB2 domain (114 μM) in the cell of a VP-isothermal titration calorimeter (Microcal) equilibrated at 25° C. The data were fitted to a 1:1 binding model using the Origin software supplied by the manufacturer, after subtraction of the heats of dilution of the calcium. Because binding was weak, the experiment was carried out under low ‘c-value’ conditions (where the concentration of the protein in the cell is lower than that of the KD).

MBL = MBL (Rattus norvegicus, UniProt P19999); conditions: read-out: Affinity of full-size MASP-1 binding to MBL; cited from earlier work

Molecule: CCN [ethylamine]
Inhibition of MBL/MASP-1 binding (in words) [1]: inhibitors

Molecule: CN [methylamine]
Inhibition of MBL/MASP-1 binding (in words) [1]: inhibitors

Molecule: [Cl-].[Na+] [NaCl]
Binding of MASP-1 to MBL, % of maximal ([1]; ionic strength control, all NaCl concentrations tested (up to 550 mM)): > 60%

IC50 [2]: 25 mM and ~25 mM
IC50 ([1]; SPR, MASP-1 100 nM premixed with inhibitor, 25° C., three independent experiments): 49 mM and ~50 mM
Molecule: NCCCC[C@H](N)C(=O)O [lysine]

Kd (MASP-1 CUB2; single Ca2+ site model, 25° C.): 0.49 mM and 0.5 mM
ΔH of Ca2+ binding to MASP-1 CUB2 (MASP-1 CUB2): -1.1 ± 0.14 kcal/mol
Molecule: [Ca+2].[Cl-].[Cl-] [Ca^2+, CaCl2]

B1: MASP-1: full-size MBL-associated serine protease 1 (protein, UniProt Q8CHN8 1-704, looked up)
chain: MRFLSFRRLLLYHVLCLTLTEVSAHTVELNEMFGQIQSPGYPDSYPSDSEVTWNITVPEGFRVQLYFMHFNLESSYLCEYDYVKVETEDQVLATFCGRETTDTEQTPGQEVVLSPGSFMSVTFRSDFSNEERFTGFDAHYMAVDVDECKEREDEELSCDHYCHNYIGGYYCSCRFGYILHTDNRTCRVECSGNLFTQRTGTITSPDYPNPYPKSSECSYTIDLEEGFMVTLQFEDIFDIEDHPEVPCPYDYIKIKAGSKVWGPFCGEKSPEPISTQSHSIQILFRSDNSGENRGWRLSYRAAGNECPKLQPPVYGKIEPSQAVYSFKDQVLISCDTGYKVLKDNEVMDTFQIECLKDGAWSNKIPTCKIVDCGVPAVLKHGLVTFSTRNNLTTYKSEIRYSCQQPYYKMLHNTTGVYTCSAHGTWTNEVLKRSLPTCLPVCGLPKFSRKHISRIFNGRPAQKGTTPWIAMLSQLNGQPFCGGSLLGSNWVLTAAHCLHHPLDPEEPILHNSHLLSPSDFKIIMGKHWRRRSDEDEQHLHVKHIMLHPLYNPSTFENDLGLVELSESPRLNDFVMPVCLPEHPSTEGTMVIVSGWGKQFLQRLPENLMEIEIPIVNYHTCQEAYTPLGKKVTQDMICAGEKEGGKDACAGDSGGPMVTKDAERDQWYLVGVVSWGEDCGKKDRYGVYSYIYPNKDWIQRVTGVRN
modifications: full-length
Kd (MBL): 10 to 100 nM
